From a melting point compilation (Tetko et al.; mined from patent text by program, amines drawn as free bases though some values may be those of a salt) come the findings set out here.

A value given as a limit tells only on which side of the number the result lay.

What is called melting point is the temperature, or range, at which the solid turns liquid. For `O=C1CCC(C(=O)N2CCN(C(=O)CN3CCOCC3)CC2)N1` (stereo not drawn), the melting point lay in the range of 204 to 205 °C.

Compound `COc1cc(C(O)c2ccccc2S(=O)(=O)Nc2ccccc2C)cc2c1OCO2` (stereo not drawn) returned a melting point of 155 to 158 °C. As for `CCOC(=O)Cc1ccc(N2Cc3ccccc3C2=N)cc1`, the melting point lay in the range of 204 to 206 °C.

The compound `CS(=O)(=O)c1ccc(-c2c(-c3ccc(F)cc3)c(OCc3ccccc3)nn2Cc2ccccc2)cc1` showed a melting point of 174 to 175 °C. To `CC(C)Cn1cnc2c(N)nc3c(c21)NCCC3` belongs 222 to 226 °C; to `O=[N+]([O-])c1cccc(Oc2cncc(Cl)n2)c1`, 118 to 119 °C; to `O=C(O)c1ccc(NCCCc2ccc(Cl)cc2)cc1`, 191 to 192 °C. To `O=C1CCN(C(=S)Nc2ccc(Cl)cc2)N1c1ccc(Cl)cc1` belongs 121 to 124 °C; to `NC(=O)CNC(=O)c1ccc(-c2cccc3cc(Cc4cccc(C(F)(F)F)c4)sc23)nc1`, 191 to 192 °C.

Compound `Cc1cc(C)c(CSc2ccccc2)c(-c2ccc(F)c(C)c2)c1` yielded a melting point of 72 to 74 °C.

`CC(C)(C)OC(=O)N1CCC(C(=O)NCCC(=O)OCc2ccccc2)C1` (stereo not drawn): the melting point lay in the range of 83 to 84 °C. To `Cc1c(C(=O)O)ccc(O)c1O` belongs 200 to 201 °C; to `CCC(OC)(c1ccc(OCc2ccc3ccccc3n2)c(OC)c1)c1nccs1` (stereo not drawn), 100 to 102 °C.

Compound `CCOC(=O)C1=C(C)NC(=S)N(C(=O)OCC)C1c1ccccc1OCc1ccccc1` (stereo not drawn) gave a melting point of 153 to 155 °C. To `CCOC(=O)C(NC(=O)N1CCc2cc(S(=O)(=O)N3CCN(c4cccc(Cl)c4)CC3)ccc21)C(C)C` (stereo not drawn) belongs 143 to 144 °C; to `COC(=O)c1ccccc1OCC(O)CNCCNC(=O)C(C)C` (stereo not drawn), 128 to 129 °C. To `CSc1nnc(-c2ccc3occ(-c4cccc(OC(F)(F)F)c4)c3c2)o1` belongs 113 to 114 °C; to `Nc1nc(-c2cc(Cl)ccc2Cl)nc(N2CCS(=O)(=O)CC2)n1`, greater than 275 °C; to `CC(=O)Nc1ccc(-c2ccc3nc(-c4cccnc4N)n(-c4ccc(CNC(=O)c5ccccc5)cc4)c3n2)cc1`, 299 to 300 °C. Compound `O=S(=O)(Nc1ccccc1OCCCN1CCC(OC(c2ccccc2)c2ccccc2)CC1)c1ccccc1` came in with a melting point of 131 to 132 °C.

`C=CCS(=O)c1c(O)cc(C)oc1=O` (stereo not drawn): the melting point was 111 to 112 °C.

`COc1ccc(C(=O)Nc2ccc(F)c(F)c2)cc1NCc1cccc(O)c1` returned a melting point of 160 to 163 °C. As to `O=C(CCc1ccccc1)N[C@H](Cc1ccc(C(F)(F)F)cc1)[C@@H](O)c1ccc(F)c(F)c1` (racemic), the melting point lay in the range of 114 to 115 °C. To `C[C@H](O)[C@@H](Nc1ccc(C#N)c(Cl)c1Cl)c1nnc(-c2ccccc2)o1` belongs 156 °C; to `CCCc1c(C(=O)N(C)Cc2ccc3cc(O)ccc3c2)cnn1-c1ccccc1`, 138 to 141 °C; to `O=C1Nc2ccccc2C(=O)N2CCCC12` (stereo not drawn), 174 °C. To `Brc1ccc(OCc2ccccc2)cc1OCc1ccccc1` belongs 37 to 38 °C; to `Nc1nccn2c(C3CCC3)nc(-c3ccccc3)c12`, 164 to 166 °C; to `CCOC(=O)c1ccc(C#CCO)cc1`, 58 to 60 °C.

The compound `CCCCCCCCCCCCCCCCN=C=O` showed a melting point of 107 to 109 °C. The result for `C=CCN(C=O)c1ccc([N+](=O)[O-])cc1C` reads 56 °C; that for `COCCOC(=O)C1=C(C)Nc2nc(N3CCOCC3)nc(N3CCOCC3)c2C1c1cccc([N+](=O)[O-])c1` (stereo not drawn), 172 °C. For `Cc1ccc(-c2cccc(/C=C/C(=O)Nc3ccc(CN4CCCC(CO)C4)cc3)c2)cc1` (stereo not drawn), the melting point lay in the range of 153 to 154 °C. To `Cc1ccc(S(=O)(=O)N2c3ccccc3C(c3ccccc3)(c3ccccc3)C2NC(=O)Nc2ccc(F)cc2F)cc1` (stereo not drawn) belongs 244 to 246 °C; to `CC1(C)CC(=O)c2c(OC3CCC3)sc(-c3cc[nH]n3)c2C1`, 202 to 204 °C. To `Nc1cc(=O)n(CC2CCCCC2)c(=O)n1CC1CCCCC1` belongs 138 to 141 °C; to `CCNc1nc2c(N)nc3ccccc3c2n1CC(C)C`, 188 to 190 °C. The result for `C=CCS(=O)(=O)c1ccc(N2CC=C(c3ccc(Cl)c(Cl)c3)N2)cc1` reads 198 °C; that for `CCOC(=O)c1c(Cl)nn(-c2c(Cl)cc(C(F)(F)F)cc2Cl)c1N`, 143 to 146 °C. Compound `O=S(=O)(ON=C1CCCc2ccccc21)c1ccc(O)cc1` had a melting point of 141 to 142 °C.

With `Cc1c(C(=O)Nc2ccc(N3CCN(CCO)CC3)c(C#N)c2)cnn1-c1ccc(F)cc1`, the melting point is 179 to 180 °C.

In turn, `NC1NC=CN1c1ccncc1` (stereo not drawn) returned a melting point of 190 °C.

`CCCCCCC(=O)N[C@H](CCC(=O)O)C(=O)O` returned a melting point of 92 to 96 °C. Compound `CCC(CO)Nc1cc(C)nc(Oc2c(C)cc(Cl)cc2C)c1CO` (stereo not drawn) registered a melting point of 133 to 135 °C. On to `COc1cccc2c1OC(C(=O)Nc1ccncc1)C2CC(=O)O` (stereo not drawn), for which the melting point was in the range of 227 to 233 °C. The result for `CCCNc1cn(-c2cccnc2)nc1Cl` reads 92 to 94 °C; that for `CCN(SCc1nccs1)C(=C[N+](=O)[O-])SC`, 63 to 64 °C. To `CCOC(=O)Cc1c(C#N)cnc2c(NC(=O)c3c(Cl)cccc3Cl)cccc12` belongs 171 to 173 °C. To `Cc1nnc(-c2ccc3occ(-c4ccc(SCc5ccccc5C#N)cc4)c3c2)o1` belongs 141 to 142 °C; to `COC(=O)COc1ccc(SCc2cc(-c3ccc(Cl)cc3)on2)c2c1CCC2`, 112 to 114 °C.

The compound `Nc1nc(O)c2c(n1)NCC(CCc1ccc(C(=O)N[C@@H](CCC(=O)O)C(=O)O)s1)C2` (stereo partly drawn) registered a melting point of 204 to 230 °C. Compound `COc1cc(OC)c2cc(C(=O)c3ccccc3)c(=O)oc2c1` came in with a melting point of 178 to 179 °C. The result for `Cc1cc(Nc2cc(Cl)nc(-c3ccccc3)n2)[nH]n1` reads 235 to 236 °C; that for `O=C(O)c1cccc(CC2COc3cc(O)ccc3C2=O)c1` (stereo not drawn), 234 to 236 °C; that for `CCCCc1nc2c(N)nc3ccc(OCCC4CCN(S(C)(=O)=O)CC4)cc3c2n1C`, 198 to 200 °C. To `CSc1c(C(Cc2ccccc2)C(=O)O)cc(C)c2c3ccccc3n(Cc3ccccc3)c12` (stereo not drawn) belongs 199 to 200 °C. For the compound `COC1=C(OC)C(=O)C2=C(CC(CCCCCCCCN3CCN(Cc4ccccc4)CC3)(c3ccccc3)C2)C1=O`, the melting point was in the range of 78 to 80 °C.

Consider `COC(=O)Nc1cc(NC(=O)NSC(=S)N(C)C)ccc1C`, for which the melting point was 180 to 185 °C. As to `O=C1OCc2c1cc1ccc3c(c1c2-c1ccc(Cl)cc1)OCO3`, the melting point lay in the range of 225 to 227 °C. For `CN[C@@H]1Cc2ccccc2[C@H]1Nc1ccccc1CO` (relative stereo), the melting point was in the range of 113 to 114 °C. To `N#Cc1nn(-c2c(Cl)cc(C(F)(F)F)cc2Cl)cc1C=C(Cl)Cl` belongs 99 to 101 °C; to `O=C(O)c1ccc(C(=O)NOCc2ccc3ccccc3c2)cc1`, 241 to 243 °C; to `O=C(O)COc1cc2c(c(Cl)c1Cl)C(=O)CCC2`, 250 to 252 °C. To `Oc1cc(Cl)c2c(C34CC5CC(CC(C5)C3)C4)noc2c1` belongs 215 °C.

Compound `COc1cc(-c2n[nH]c(SC)c2C)c(F)cc1Cl` registered a melting point of 95 to 100 °C. The result for `O=C1C[C@@H](COS(=O)(=O)c2ccccc2)N1` reads 102 to 105 °C; that for `O=C(O)c1ccc(OCCOc2ccccc2)cc1`, 198 to 199 °C; that for `Cc1noc(C)c1-c1nn(Cc2ccccc2)c(=O)c2ccccc12`, 186 to 188 °C. Take `Cc1nc(CC(=O)NCc2cccc3c2C(=O)N(C2CCC(=O)NC2=O)C3=O)c(C)s1` (stereo not drawn): the melting point was in the range of 140 to 142 °C. To `c1ccc(OCCSCc2nnc(-c3ccc(OCCN4CCCCCC4)cc3)o2)cc1` belongs 40 °C; to `O=C1NC(=O)c2c1c(-c1ccccc1Cl)cc1c2cc(CO)n1CCCBr`, 218 to 220 °C. The result for `O=C(O)c1cccc2c(=O)c3cc([N+](=O)[O-])ccc3[nH]c12` reads 375 °C; that for `COCc1c(-c2csc(C)n2)ncc2c1c1cc(OCc3ccccc3)ccc1n2S(=O)(=O)c1ccc(C)cc1`, 173 to 175 °C. In turn, `O=C(NCCCc1cccc2oc(CCCCc3ccccc3)cc12)C1CC1` came in with a melting point of 70 to 71 °C. Turning to `COC(=O)C=Cc1ccc(C=O)cc1`, the melting point lay in the range of 82 to 84 °C.

On to `CCOCn1c(Oc2ccccc2)c(C(C)C)c(=O)[nH]c1=O`, for which the melting point lay within 137 to 138 °C.

With `CCC(CC)c1nn(-c2ccc(C(F)(F)F)cn2)cc1CCCO`, the melting point is 79 to 80 °C. The result for `COCCCOc1ccc(/C=C/C(=O)O)c(Oc2ncc(C(F)(F)F)cc2Cl)c1` reads 131 to 133 °C.

`COc1ccc(/C=N/Nc2nc(=O)[nH]cc2F)cc1` had a melting point of 202 to 208 °C. On to `CCOC(=O)C1C(=O)CC(C)(O)C(C(=O)OCC)C1c1cc(C)c2oc(C)c(C)c2c1` (stereo not drawn), for which the melting point lay within 168 to 171 °C. To `O=C(NC1CCCCC1)NS(=O)(=O)c1ccc(CCNC(=O)N2CCc3ccccc3C2=O)cc1` belongs 197 to 198 °C. The result for `COc1cc(CC(=O)Nc2nn(-c3ccccc3)cc2C=O)ccc1OCc1nc(-c2ccco2)oc1C` reads 190 to 191 °C; that for `COc1ccc(C=NO)cc1C`, 70 to 72 °C. The result for `Cc1c(C(=O)O)sc2c(Br)csc12` reads 280 to 282 °C; that for `CCOC(=O)C(=O)C1C(=O)c2c(OC)ccc3c2C1CCO3` (stereo not drawn), 104 to 106 °C; that for `N#Cc1ccc2cc(C(N)=O)[nH]c2c1`, 241 to 242 °C. In turn, `Cc1c([N+](=O)[O-])c(=O)n(-c2cc(C(=O)OC(C)C)c(Cl)cc2F)c(=O)n1C` came in with a melting point of 129 to 131 °C. The result for `O=C(Oc1ccccc1OC(=O)c1cc(O)c(O)c(O)c1)c1cc(O)c(O)c(O)c1` reads 210 °C.
